For eight molecules, inhibition results are on record in ChEMBL document CHEMBL5226308, “Amide-Amine Replacement in Indole-2-carboxamides Yields Potent Mycobactericidal Agents with Improved Water Solubility” (ACS Med Chem Lett, 2021).

In assay [1] the test system is Mycobacterium tuberculosis variant bovis. Description: Inhibition of MmpL3 C1932G/F644L mutant in Mycobacterium bovis BCG B47-4 assessed as reduction in TDM level at 1XMIC90 treated for 1 hr followed by incubation with [14C]acetate for 1 to 3 hrs by thin layer chromatography. The settings on record: time 2-4 hrs.
For assay [2] the test system is unchanged. Description: Inhibition of MmpL3 C1932G/F644L mutant in Mycobacterium bovis BCG B47-4 assessed as increase in TMM level at 1XMIC90 treated for 1 hr followed by incubation with [14C]acetate for 1 to 3 hrs by thin layer chromatography. The settings on record: time 2-4 hrs.
Assay [3] has the same test system. Description: Inhibition of MmpL3 in Mycobacterium bovis BCG ATCC 35734 assessed as reduction in TDM level at 1XMIC90 treated for 1 hr followed by incubation with [14C]acetate for 1 to 3 hrs by thin layer chromatography. To be noted: time 2-4 hrs, TDE = time-dependent effect.
For assay [4] the test system is unchanged. Description: Inhibition of MmpL3 in Mycobacterium bovis BCG ATCC 35734 assessed as increase in TMM level at 1XMIC90 treated for 1 hr followed by incubation with [14C]acetate for 1 to 3 hrs by thin layer chromatography. The settings on record: time 2-4 hrs, TDE = time-dependent effect.
For assay [5] the test system is unchanged. Briefly: Inhibition of MmpL3 in Mycobacterium bovis BCG ATCC 35734 assessed as reduction in TDM level at 4XMIC90 treated for 1 hr followed by incubation with [14C]acetate for 1 to 3 hrs by thin layer chromatography. The settings on record: time 2-4 hrs.
Assay [6] shares this test system. Description: Inhibition of MmpL3 in Mycobacterium bovis BCG ATCC 35734 assessed as increase in TMM level at 4XMIC90 treated for 1 hr followed by incubation with [14C]acetate for 1 to 3 hrs by thin layer chromatography. To be noted: time 2-4 hrs.

Active and inactive are the calls of the source. The rule behind the calls is not given here.

`O=C(NC1CCCCCCC1)c1cc2ccccc2s1`: the inhibition result in assay [1] and in assay [2] was “inactive” throughout.
With `FC(F)(F)c1ccc2cc(CNC3CCCCCCC3)[nH]c2c1`, the inhibition result in assay [3] and in assay [4] was “Tde” throughout. The inhibition result in assay [1] and in assay [2] was “inactive” each time.
`O=C(NC1CCCCCCC1)c1cc2ccc(C(F)(F)F)cc2[nH]1`: the inhibition result in assay [3] and in assay [4] was “Tde” each time. Also, the inhibition result in assay [1] and in assay [2] was “inactive” each time.
In the case of `c1ccc2sc(CNC3CCCCCCC3)cc2c1`, the inhibition entry in assay [3] and in assay [4] was “Tde” each time. The inhibition entry in assay [1] and in assay [2] was “inactive” throughout.
As for `O=C(NC1CCCCCCC1)c1cc2ccccc2[se]1`, the inhibition result in assay [1] and in assay [2] was “inactive” each time.
As to `CC[C@@H](CO)NCCN[C@@H](CC)CO`, the inhibition result in assay [5] and in assay [6] was “inactive” in each case.
`Cc1c(CN2CCN(C)CC2)cc(-c2ccc(Cl)cc2)n1-c1ccc(Cl)cc1`: the inhibition result in assay [3] and in assay [4] was “Tde” throughout. Moreover, the inhibition result in assay [1] and in assay [2] was “inactive” throughout.
As for `c1ccc2[se]c(CNC3CCCCCCC3)cc2c1`, the inhibition result in assay [1] and in assay [2] was “inactive” throughout.
